Data on three compounds can be found in patent publication EP0470490B1, “Substituted pyrroles” (F. HOFFMANN-LA ROCHE AG, priority 1990, dated 1992).

Structures can show the parent of a compound that is named as a salt.

This assay addresses protein kinase C. In words: in vitro protein kinase C inhibition: protein kinase-induced incorporation of 32P from [γ-32P]ATP into histone. It counts as biochemical. The settings on record: concentration of test compound which reduces by 50% the protein kinase-induced incorporation of 32P from [γ-32P]ATP into histone. The text has this:
Research Comm. 19 (1979) 1218. The IC50 values in the following Table are that concentration of test compound which reduces by 50% the protein kinase-induced incorporation of ^32P from [γ-^32P]ATP into histone. Table

The term IC50 denotes the concentration that gives 50% inhibition. With `CN1C[C@@H]2Cc3c(C4=C(c5cn(C)c6ccccc56)C(=O)NC4=O)c4ccccc4n3C[C@@H]2C1` (relative stereo) [Example 6, cis-3-[2,3,3a,4,11,11a-hexahydro-2-methyl-1H-pyrrolo[3',4':4,5]pyrido-[1,2-a]indol-10-yl]-4-(1-methyl-3-indolyl)-1H-pyrrole-2,5-dione hydrochloride], the IC50 is 0.03 µM. Compound `CN1C[C@H]2Cc3c(C4=C(c5cn(C)c6ccccc56)C(=O)NC4=O)c4ccccc4n3C[C@@H]2C1` (relative stereo) [Example 14, trans-3-(2,3,3a,4,11,11a-hexahydro-2-methyl-1H-pyrrolo[3',4':4,5]pyrido[1,2-a]indol-10-yl)-4-(1-methyl-3-indolyl)-1H-pyrrole-2,5-dione hydrochloride] came in with an IC50 of 0.007 µM.

Compound `Cn1cc(C2=C(c3c4n(c5ccccc35)CCC3(CCNC3)C4)C(=O)NC2=O)c2ccccc21` (stereo not drawn) [Example 1, 3-[6,7,8,9-tetrahydrospiro[pyrido[1,2-a]indole-8,3'-pyrrolidin-10-yl]-4-(1-methyl-3-indolyl)-pyrrole-2,5-dione trifluoroacetate] yielded a half-maximal inhibitory concentration (IC50) of 0.04 µM.
